From article PMC8779152, “A “Double-Locked” and Enzyme/pH-Activated Theranostic Agent for Accurate Tumor Imaging and Therapy” (Molecules, 2022)

Target: HDAC1 (Homo sapiens, UniProt Q13547)
Test: HDAC1 enzyme inhibition (assay details not given)
Format: biochemical

Sequence of HDAC1 (Q13547 whole entry): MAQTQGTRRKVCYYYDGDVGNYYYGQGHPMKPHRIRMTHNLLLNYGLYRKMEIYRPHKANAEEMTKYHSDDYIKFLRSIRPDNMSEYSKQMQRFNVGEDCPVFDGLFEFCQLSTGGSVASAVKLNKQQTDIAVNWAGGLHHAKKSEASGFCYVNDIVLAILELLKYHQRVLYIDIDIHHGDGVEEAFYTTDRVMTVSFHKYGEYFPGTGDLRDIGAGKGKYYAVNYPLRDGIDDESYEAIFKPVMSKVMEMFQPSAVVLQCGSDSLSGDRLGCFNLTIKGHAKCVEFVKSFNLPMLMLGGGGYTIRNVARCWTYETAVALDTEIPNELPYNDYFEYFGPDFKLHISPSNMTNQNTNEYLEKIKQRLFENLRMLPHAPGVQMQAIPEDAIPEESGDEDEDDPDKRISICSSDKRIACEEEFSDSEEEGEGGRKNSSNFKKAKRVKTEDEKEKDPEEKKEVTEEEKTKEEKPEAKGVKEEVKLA

Row | IC50 [nM] | Compound
1 | 41 ± 5 | Nc1ccc(-c2nc(NCc3ccc(C(=O)NO)cc3)cc3c2[nH]c2ccccc23)cc1 [H6AQ]
2 | 65 ± 6 | O=C(NO)c1ccc(CNc2cc3c([nH]c4ccccc43)c(-c3ccc([N+](=O)[O-])cc3)n2)cc1 [H6M]
